In data set [1] the test system is plasmid pBR322 DNA. Put plainly: Plasmid DNA strand breakage induced by Fe(III)–citrate/ascorbate/H2O2, agarose gel electrophoresis. Type of data set: biochemical. Particulars: 20 μM Fe(III)–citrate, 10 μM ascorbate, 200 μM H2O2. As for the experimental part:
(§1) Plasmid DNA agarose gel electrophoresis was employed to investigate protective effect of CAPE and its analogues against DNA strand breakage induced by an iron-mediated system. For experimental procedure details, please refer to the Supplementary Materials.
Figure 4 Protective effect of CAPE and its analogues against Fe(III)–citrate–ascorbate–H2O2-induced DNA damage. […] The reaction mixture contained 20 μM Fe(III)–citrate, 10 μM ascorbate, and 200 μM H2O2, as well as the indicated concentrations of CAPE and its analogues. The experiments were repeated three times, and only typical images are presented. […]
The experiments were conducted via incubation of plasmid pBR322 DNA (5 μg/mL) at 37 °C for
30 min in Chelex-treated HEPES buffer (100 mM, pH 7.4) with the iron-containing systems, in the
absence or presence of the indicated concentrations of CAPE and its analogues. […]

The nature of data set [2]: Cyclic voltammetry of Fe(III) chelated by ligand. Type of data set: physicochemical. The note with it: 100 mM PB pH 7.4, SCE reference, 2 mV/s; Fe(III) alone approximately −0.65 V. The method, then: CV was performed in 100 mM PB (pH 7.4) on a Princeton Applied Research (VersaSTAT3) potentiostat with a Pt wire as the counter electrode, a saturated calomel electrode (SCE) as the reference electrode, and a glassy carbon electrode (5 mm in diameter) as the working electrode. The scan rate was 2 mV/s.

The subject of data set [3] is HeLa cells. Briefly: Labile iron pool (LIP) determination with calcein-AM in iron-overloaded HeLa cells, flow cytometry. Particulars: 50 μM compound alone, no iron. Type of data set: cell-based, human.
In data set [4] the test system is HeLa cells. The description is as above. It is filed as cell-based, human. The note with it: 15 min. The method, then:
HeLa cells (10^6/mL) were loaded by incubation with 20 μM Fe(II) for 2 h at 37 °C. Subsequently, cells were collected by centrifugation (1000 rpm for 5 min) and incubated with 0.5 μM calcein-AM for 15 min at 37 °C in a D’hanks buffer of pH 7.4. Cells were then washed twice by D’hanks buffer (pH 7.4) and incubated with or without CAPE and its analogues. The fluorescence was monitored by both flow cytometry (BD FACS Caliber) and a CLSM (Leica TCS SP). The experiment was repeated three times.
Figure 3 Effect of CAPE and its analogues on the LIP level in iron-overloaded cells, as measured by flow cytometry (A–D). HeLa cells were pretreated with 20 μM Fe(II) for 2 h and then incubated with calcein-AM. After 15 min, cells were washed and incubated with or without CAPE and its analogues for 15 min. The fluorescence intensity of cells was measured by flow cytometry. Significant differences from the iron-overloaded group are marked with * p < 0.05, ** p < 0.01, and *** p < 0.001. The experiment was repeated three times.

Data set [5] is described as follows: ESR spin-trapping (DMPO) of •OH generated by Fe(III)–citrate–ascorbate–H2O2. Type of data set: biochemical. The note with it: 100 μM Fe(III)–citrate, 100 μM ascorbate, 1 mM H2O2.
Protocol: The basic system used in this study consisted of Fe(III)/Fe(II), ascorbate, H2O2, and the spin trapping agent DMPO (100 mM) in 20 mM HEPES (pH 7.4) with or without CAPE and its analogues.
The reaction mixture contained 100 μM Fe(III)–citrate, 100 μM ascorbate, and 1 mM H2O2, as well as the indicated concentrations of CAPE and its analogues. The experiments were repeated three times, and only typical spectra are presented.
2.3 Electron spin resonance (ESR) spin-trapping studies
spectrometer parameters were as follows: scan range, 100 G; field set, 3470 G; time constant, 200 ms;
scan time, 100 s; modulation amplitude, 1.0 G; modulation frequency, 100 kHz; receiver gain,
Data set [6] is described as follows: 1-octanol/phosphate buffer partitioning, shake-flask method. Type of data set: physicochemical. Particulars: 1-octanol / 100 mM phosphate buffer pH 7.4, shake-flask.
For data set [7], the system named is HeLa cells. Put plainly: Immunofluorescence analysis of intracellular γ-H2AX generation in iron-overloaded HeLa cells (with H2O2). The note with it: Fe(II)-H2O2 alone 2.86±0.64. It is filed as cell-based, human. The method, then: The immortalized human cervical carcinoma HeLa cell line used in this study was obtained from the Cell Resource Center, Peking Union Medical College. The cell line was checked to be free of mycoplasma contamination by PCR and culture. Its species origin was confirmed with PCR. The identity of the cell line was authenticated with STR profiling (FBI, CODIS). HeLa cells were cultured in a DMEM medium (4 mM L-glutamine, 4500 mg/L glucose, and no sodium pyruvate) with 10% fetal bovine serum (FBS) and 1% penicillin–streptomycin at 37 °C under a 5% CO2 atmosphere.
HeLa cells (10^4/well) were loaded by incubation with 20 μM Fe(II) for 2 h at 37 °C. […] For a detailed experimental procedure, please refer to the Supplementary Materials and our previous report. The experiment was repeated three times. The observation of the fluorescence of γ-H2AX in HeLa cells was conducted with a confocal laser scanning microscope (CLSM) (Leica TCS SP). Thirty cells in each group were randomly selected in different microscopic fields for quantitative detection. In detail, each well was equally divided into nine fields and numbered sequentially from the top right corner. Four fields were randomly selected according to a random number table. Thirty cells were then randomly selected from these four fields. All images were analyzed blind regarding exposure parameters, which were coded by one person and read by another who was blinded to the code. The fluorescence intensity of the γ-H2AX signal on selected images was automatically analyzed using the Image-J software. The Statistical Product and Service Solutions (SPSS 21) program was employed to analyze the data through ANOVA. Significant difference from iron-overloaded group are marked with * p < 0.05, ** p < 0.01, and *** p < 0.001.
(§2) 2.1 Immunofluorescence analysis of intracellular γ-H2AX generation in Hela cells
(§3) Fixed cells were permeabilized with 0.25% Triton-X100 in PBS for 10 min and blocked in 10%
(§4) normal goat serum, 0.1% tween 20 in PBS for 1 hour. The cells were incubated with primary
(§5) monoclonal antibody, γ-H2AX (Ser139, 20E3, Rabbit, mAb #9718) (1:600) overnight at 4°C, and then
(§6) stained secondary antibodies, anti-rabbit Alexa-488 and anti-mouse (Cell Signaling Technology) for
(§7) 1 hour. After Hoechst 33342 (10 μg/mL) staining for 2 min, dishes were mounted in ProLong™ Gold
(§8) Antifade Mountant (Invitrogen™) and stored at 4°C in the dark before confocal laser-scanning by
(§9) Broadband Confocal Leica TCS SP5. The CLSM images were obtained with the following excitation
(§10) respectively. Cells were washed 3 times with PBS (200 μL/well) at intervals. […]

In data set [8] the test system is plasmid pBR322 DNA. Put plainly: Plasmid DNA strand breakage induced by Fe(II)–H2O2, agarose gel electrophoresis. Particulars: ratio-dependent. Type of data set: biochemical. The method, then: as §1, §2, §3, §4, §5, §6, §7, §8, §9, §10
ESR spectra were recorded at room temperature in a Bruker ESR 300 spectrometer. […]
The consumption of O2 was measured by Orion 3 dissolved oxygen meter (Thermo Scientific, […]
Corona Needle current was 3000 nA. The size of data points was recorded in 4 M format. […]

In data set [9] the test system is HeLa cells. Briefly: Auto-fluorescence of HeLa cells after incubation with compound (cell uptake). It is filed as cell-based, human. Particulars: HeLa cells incubated two hours, auto-fluorescence Ex ~330 nm, Em ~450 nm.
Description: Subsequently, cells were washed and collected by centrifugation, the fluorescence of cells (105) was monitored by Thermo Scientific Varioskan Flash (Thermo Fisher scientific, USA) ***Significant difference from iron-overloaded group, p < 0.001.

Structures are written as SMILES.

For `O=C(/C=C/c1ccc(O)c(O)c1)OCCc1ccccc1` [CAPE, Caffeic acid phenethyl ester], in the data set on plasmid pBR322 DNA [1], the “Protective effect against Fe(III)–citrate–ascorbate–H2O2-induced DNA damage, in words” value is on record as “significantly inhibited”. For the same molecule, in the data set with plasmid pBR322 DNA [1] (CAPE significantly, CA slightly), the “Concentration range with the stated inhibition of Fe(III)-citrate-Vc-H2O2 induced DNA damage” value is 40 to 200 µM. Besides, the “Reduction potential of Fe(III) chelated by compound” value in data set [2] was −1.00 V. The “Fluorescence intensity of calcein-AM (LIP level)” value is 0.97±0.03 Fold of Control in the data set on HeLa cells [3]; 0.65±0.00 Fold of Control in the data set on HeLa cells [4] (20 μM Fe(II) + 2 μM compound, Fe(II) alone 0.64±0.04); 0.73±0.02 Fold of Control in the data set with HeLa cells [4] (20 μM Fe(II) + 20 μM compound, Fe(II) alone 0.64±0.04); 0.89±0.04 Fold of Control in the data set on HeLa cells [4] (20 μM Fe(II) + 50 μM compound, Fe(II) alone 0.63-0.64). For the same molecule, the “Inhibitory effect against Fe(III)-citrate-Vc-H2O2 induced •OH generation, in words” value in [5] is listed as “completely inhibited”. For the same molecule, the “Concentration with the stated inhibition of Fe(III)-citrate-Vc-H2O2 induced •OH generation” value in [5] (CAPE completely, CA significantly) was 200 µM. The LogKow in data set [6] turned out to be 2.01 ± 0.02. Further, the “Fluorescence intensity of γ-H2AX” value is 3.07±0.54 Fold of Control in the data set with HeLa cells [7] (Fe(II)-H2O2 + 2 μM compound), 2.71±0.32 Fold of Control in the data set with HeLa cells [7] (Fe(II)-H2O2 + 10 μM compound), 1.66±0.46 Fold of Control with HeLa cells [7] (Fe(II)-H2O2 + 20 μM compound) and 1.26±0.23 Fold of Control in the data set with HeLa cells [7] (Fe(II)-H2O2 + 50 μM compound). Also, the “Inhibition of Fe(II)–H2O2-induced DNA strand breaks, in words” value in the data set with plasmid pBR322 DNA [8] is reported as “significantly inhibited”. Moreover, the “Fluorescence inside the cells after incubation (crossing the cell membrane), in words” value in the data set on HeLa cells [9] is recorded as “significantly increase”.

The values above are taken from paper PMC8157578 (Antioxidants, 2021).
